This is an account of results in US8158621B2, “Methods of treating or preventing autoimmune diseases with 2,4-pyrimidinediamine compounds” (Rigel Pharmaceuticals, Inc., priority 2002, dated 2012).

In one test the test system is cultured human mast cells (CHMC). The test is described as follows: CHMC low cell density IgE activation: tryptase assay. Type of test: cell-based. Particulars: low cell density; read-out: CHMC anti-IgE Tryptase. Summed up: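 Cells pelleted, taken up in warm MT, plated at 1000-1500/well, held 1 hr 37° C. Anti-IgE added, 30 min 37° C. Plates spun; supernatant mixed with tryptase substrate, 30 min RT.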
With `COc1c(Cl)cc(Nc2ncc(F)c(Nc3ccc4c(c3)NC(=O)C(F)(F)O4)n2)cc1Cl` [Compound R927061], the IC50 was determined as 126 nM.

`COc1c(C)cc(Nc2ncc(F)c(Nc3ccc4c(c3)-n3ccnc3CO4)n2)cc1Cl` [Compound R935418]: the IC50 was 228 nM.

`COC(=O)N1CCN(c2ccc(Nc3ncc(F)c(Nc4ccc5c(n4)NC(=O)CO5)n3)cc2)CC1` [Compound R945392]: the IC50 worked out at 85 nM.

Consider `Fc1cnc(Nc2ccc3cc[nH]c3c2)nc1Nc1ccc(Cl)c(Cl)c1` [Compound R926975], for which the IC50 was 421 nM.

As to `O=C1Nc2cc(Nc3nc(Nc4ccc5cn[nH]c5c4)ncc3F)ccc2OC1(F)F` [Compound R940364], the IC50 was found to be 46 nM.

As for `O=C1Nc2cc(Nc3nc(Nc4cc(Cl)c(O)c(Cl)c4)ncc3F)ccc2OC1(F)F` [Compound R927048], the IC50 was determined as 50 nM.

On to `O=C1COc2ccc(Nc3nc(Nc4cccc(OCC(=O)NC5CC5)c4)ncc3F)nc2N1` [Compound R945390], for which the IC50 was found to be 118 nM.

Another test has the same test system. The test is described as follows: CHMC low cell density ionomycin activation: tryptase assay. Particulars: low cell density; read-out: CHMC Ionomycin Tryptase. Type of test: cell-based.
`CNC(=O)COc1cccc(Nc2ncc(F)c(Nc3ccc(OC(F)(F)F)c(C(=O)NC)c3)n2)c1` [Compound R950407]: the IC50 is above 10000 nM.

For the molecule `CNC(=O)COc1cccc(Nc2ncc(F)c(Nc3ccc(N4CCN(C(=O)OC)CC4)cc3)n2)c1` [Compound R945368], the IC50 was above 10000 nM.

As to `COc1ccc(Nc2nc(Nc3cc(Cl)c(O)c(Cl)c3)ncc2F)cc1Cl` [Compound R927044], the IC50 is above 10000 nM.

Take `CNC(=O)COc1cccc(Nc2ncc(F)c(Nc3ccc(N4CCOCC4)cc3)n2)c1` [Compound R945367]: the IC50 is above 10000 nM.

As to `Oc1c(Cl)cc(Nc2ncc(F)c(Nc3ccc(OC(F)(F)F)c(Cl)c3)n2)cc1Cl` [Compound R927046], the IC50 was above 10000 nM.

Consider `COc1c(Cl)cc(Nc2ncc(F)c(Nc3ccc4c(c3)NC(=O)C(F)(F)O4)n2)cc1Cl` [Compound R927061], for which the IC50 turned out to be 4720 nM.

Consider `COc1c(C)cc(Nc2ncc(F)c(Nc3ccc4c(c3)-n3ccnc3CO4)n2)cc1Cl` [Compound R935418], for which the IC50 is above 10000 nM.

Take `COC(=O)N1CCN(c2ccc(Nc3ncc(F)c(Nc4ccc5c(n4)NC(=O)CO5)n3)cc2)CC1` [Compound R945392]: the IC50 was above 10000 nM.

As to `Fc1cnc(Nc2ccc3cc[nH]c3c2)nc1Nc1ccc(Cl)c(Cl)c1` [Compound R926975], the IC50 is 30200 nM.

Turning to `O=C1Nc2cc(Nc3nc(Nc4ccc5cn[nH]c5c4)ncc3F)ccc2OC1(F)F` [Compound R940364], the IC50 was above 10000 nM.

As to `O=C1Nc2cc(Nc3nc(Nc4cc(Cl)c(O)c(Cl)c4)ncc3F)ccc2OC1(F)F` [Compound R927048], the IC50 was above 10000 nM.

On to `O=C1COc2ccc(Nc3nc(Nc4cccc(OCC(=O)NC5CC5)c4)ncc3F)nc2N1` [Compound R945390], for which the IC50 is above 10000 nM.

For another test, the system named is bone marrow derived mast cells (BMMC). The test is described as follows: BMMC high cell density IgE activation: hexosaminidase. It counts as cell-based, mouse. Particulars: high cell density; read-out: BMMC anti-IgE Hexos. Here is the method:
After sensitizing, cells are counted, pelleted (1000 rpm, 5-10 minutes), and resuspended at 1-3×10^6 cells/ml in MT buffer. Add 100 ul of cell suspension to each well and 100 ul of compound dilutions. The final vehicle concentration is 0.5% DMSO. Incubate at 37° C. (5% CO2) for 1 hour. After 1 hour of compound treatment, stimulate cells with 6× stimulus (60 ng/ml DNP-BSA). Mix wells with the cells and allow plates to incubate at 37° C. (5% CO2) for one hour. After 1 hour incubation, pellet cells (10 minutes, 1000 RPM) and collect 200 ul per well of the supernatant, being careful not to disturb pellet, and transfer to a clean tube or 96-well plate. Place the supernatant plate on ice. During the 4-5 hour step (see next) perform the hexosiminidase assay. Resuspend cell pellet in 240 ul WEI-conditioned media containing 0.5% DMSO and corresponding concentration of compound. Incubate BMMC cells for 4-5 hours at 37° C. (5% CO2). After incubation, pellet cells (1000 RPM, 10 minutes) and collect 225 ul per well and place in −80° C. until ready to perform ELISAS. ELISAS are performed on appropriately diluted samples (determined empirically for each donor cell population so that the sample measurement falls within the standard curve) following the supplier's instructions.
Add 50 uL of BMMC cell supernatant (see above) to the hexoseaminidase substrate, place at 37° C. for 30 minutes and read the plate at 5, 10, 15, and 30 minutes on a spectrophotometer.
For the molecule `CNC(=O)COc1cccc(Nc2ncc(F)c(Nc3ccc(OC(F)(F)F)c(C(=O)NC)c3)n2)c1` [Compound R950407], the IC50 is above 10000 nM.

As for `CNC(=O)COc1cccc(Nc2ncc(F)c(Nc3ccc(N4CCN(C(=O)OC)CC4)cc3)n2)c1` [Compound R945368], the IC50 came to 1710 nM.

As to `COc1ccc(Nc2nc(Nc3cc(Cl)c(O)c(Cl)c3)ncc2F)cc1Cl` [Compound R927044], the IC50 was determined as 4280 nM.

With `CNC(=O)COc1cccc(Nc2ncc(F)c(Nc3ccc(N4CCOCC4)cc3)n2)c1` [Compound R945367], the IC50 came out at 1290 nM.

On to `Oc1c(Cl)cc(Nc2ncc(F)c(Nc3ccc(OC(F)(F)F)c(Cl)c3)n2)cc1Cl` [Compound R927046], for which the IC50 was found to be 2400 nM.

The next test deals with T1, Syk kinase (Homo sapiens, UniProt P43405).
T1 construct: purchased Upstate, Lake Placid NY
The test can be described thus: Syk kinase biochemical fluorescence polarization assay. Particulars: isolated Syk kinase, fluorescence polarization, 4 uM ATP.
`COc1c(Cl)cc(Nc2ncc(F)c(Nc3ccc4c(c3)NC(=O)C(F)(F)O4)n2)cc1Cl` [Compound R927061] came in with an IC50 of 158 nM.

In turn, `COc1c(C)cc(Nc2ncc(F)c(Nc3ccc4c(c3)-n3ccnc3CO4)n2)cc1Cl` [Compound R935418] came in with an IC50 of 558 nM.

`COC(=O)N1CCN(c2ccc(Nc3ncc(F)c(Nc4ccc5c(n4)NC(=O)CO5)n3)cc2)CC1` [Compound R945392] displayed an IC50 of 14 nM.

The molecule `Fc1cnc(Nc2ccc3cc[nH]c3c2)nc1Nc1ccc(Cl)c(Cl)c1` [Compound R926975] returned an IC50 of 767 nM.

The molecule `O=C1Nc2cc(Nc3nc(Nc4ccc5cn[nH]c5c4)ncc3F)ccc2OC1(F)F` [Compound R940364] came in with an IC50 of 1 nM.

For the molecule `O=C1Nc2cc(Nc3nc(Nc4cc(Cl)c(O)c(Cl)c4)ncc3F)ccc2OC1(F)F` [Compound R927048], the IC50 was determined as 2 nM.

With `O=C1COc2ccc(Nc3nc(Nc4cccc(OCC(=O)NC5CC5)c4)ncc3F)nc2N1` [Compound R945390], the IC50 came to 9 nM.
